Measured values as given in patent US10647713B2 (Nimbus Lakshmi, Inc., priority 2016, dated 2020).
pKd: −log10 of the molar value.

Target: human TYK2 (JH2domain-pseudokinase) (Homo sapiens (Human), UniProt P29597)
Test: TYK2 JH2 Domain Binding Assay (KINOMEscan, DiscoveRx)
Conditions: 11-point dilution, duplicate
Outline: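 Kd from duplicate 11-point 3-fold dilutions starting at 30,000 nM, fitted by Hill equation with slope fixed at −1. Compounds (final 0.9% DMSO) displace DNA-tagged HEK293-expressed TYK2 JH2 fusion (<0.1 nM) from ligand-coated beads over 1 h at room temperature; eluted kinase read by qPCR.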

human TYK2 (JH2domain-pseudokinase), sequence (P29597 556-888): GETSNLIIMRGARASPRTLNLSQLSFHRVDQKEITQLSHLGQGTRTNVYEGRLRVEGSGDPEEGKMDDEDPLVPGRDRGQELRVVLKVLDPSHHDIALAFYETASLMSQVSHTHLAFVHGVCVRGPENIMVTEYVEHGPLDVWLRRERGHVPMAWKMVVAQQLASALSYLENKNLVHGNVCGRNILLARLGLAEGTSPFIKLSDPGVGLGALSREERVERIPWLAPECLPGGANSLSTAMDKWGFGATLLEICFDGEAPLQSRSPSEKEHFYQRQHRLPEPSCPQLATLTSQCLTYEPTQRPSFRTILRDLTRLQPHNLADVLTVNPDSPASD

| Structure (SMILES) | pKd |
| --- | --- |
| Cc1nc2c(Nc3ccc(C4CC4)cc3S(C)(=O)=O)cc(Nc3cc4n(n3)CCCCC4)nc2[nH]1 [I-410, N7-(4-cyclopropyl-2-(methylsulfonyl)phenyl)-2-methyl-N5-(5,6,7,8-tetrahydro-4H-pyrazolo[1,5-a]azepin-2-yl)-3H-imidazo[4,5-b]pyridine-5,7-diamine] | 9.30 to 10.00 |
| Cc1nc2c(Nc3ccc(C4CCC4)cc3S(C)(=O)=O)cc(NC(=O)[C@@H]3CC3(F)F)nc2[nH]1 [I-411, (S)—N-(7-((4-cyclobutyl-2-(methylsulfonyl)phenyl)amino)-2-methyl-3H-imidazo[4,5-b]pyridin-5-yl)-2,2-difluorocyclopropane-1-carboxamide] | 8.00 to 9.00 |
| Cc1nc2c(Nc3ccc(C4CCC4)cc3S(C)(=O)=O)cc(NC(=O)[C@H]3CC3(F)F)nc2[nH]1 [I-412, (R)—N-(7-((4-cyclobutyl-2-(methylsulfonyl)phenyl)amino)-2-methyl-3H-imidazo[4,5-b]pyridin-5-yl)-2,2-difluorocyclopropane-1-carboxamide] | < 8.00 |
| Cc1nc2c(Nc3ccc(C4CCC4)cc3S(C)(=O)=O)cc(NC(=O)[C@H]3C[C@H]3F)nc2[nH]1 [I-413, (1R,2R)—N-(7-((4-cyclobutyl-2-(methylsulfonyl)phenyl)amino)-2-methyl-3H-imidazo[4,5-b]pyridin-5-yl)-2-fluorocyclopropane-1-carboxamide] | 9.00 to 9.30 |
| Cc1nc2c(Nc3ccc(C4CCC4)cc3S(C)(=O)=O)cc(NC(=O)[C@@H]3C[C@@H]3F)nc2[nH]1 [I-414, (1S,2S)—N-(7-((4-cyclobutyl-2-(methylsulfonyl)phenyl)amino)-2-methyl-3H-imidazo[4,5-b]pyridin-5-yl)-2-fluorocyclopropane-1-carboxamide] | 9.30 to 10.00 |
| Cc1nc(-c2ccc(Nc3cc(NC(=O)C4CC4)nc4[nH]c(C(F)F)nc34)c(S(C)(=O)=O)c2)sc1C [I-415, N-(2-(difluoromethyl)-7-((4-(4,5-dimethylthiazol-2-yl)-2-(methylsulfonyl)phenyl)amino)-3H-imidazo[4,5-b]pyridin-5-yl)cyclopropanecarboxamide] | 8.00 to 9.00 |
| Cc1cc(Nc2cc(Nc3ccc(C4CC4)cc3S(C)(=O)=O)c3nc(C(F)F)[nH]c3n2)nc(C)n1 [I-416, N7-(4-cyclopropyl-2-(methylsulfonyl)phenyl)-2-(difluoromethyl)-N5-(2,6-dimethylpyrimidin-4-yl)-3H-imidazo[4,5-b]pyridine-5,7-diamine] | 9.30 to 10.00 |
| Cc1ncc(Nc2cc(Nc3ccc(C4CC4)cc3S(C)(=O)=O)c3nc(C(F)F)[nH]c3n2)nc1C [I-417, N7-(4-cyclopropyl-2-(methylsulfonyl)phenyl)-2-(difluoromethyl)-N5-(5,6-dimethylpyrazin-2-yl)-3H-imidazo[4,5-b]pyridine-5,7-diamine] | 8.00 to 9.00 |
| Cc1ccc(-c2ccc(Nc3cc(NC(=O)C4CC4)nc4[nH]c(C(F)F)nc34)c(S(C)(=O)=O)c2)o1 [I-418, N-(2-(difluoromethyl)-7-((4-(5-methylfuran-2-yl)-2-(methylsulfonyl)phenyl)amino)-3H-imidazo[4,5-b]pyridin-5-yl)cyclopropanecarboxamide] | 8.00 to 9.00 |
| Cc1nc2c(Nc3ccc(-c4ccc(C)o4)cc3S(C)(=O)=O)cc(NC(=O)C3CC3)nc2[nH]1 [I-419, N-(2-methyl-7-((4-(5-methylfuran-2-yl)-2-(methylsulfonyl)phenyl)amino)-3H-imidazo[4,5-b]pyridin-5-yl)cyclopropanecarboxamide] | 9.30 to 10.00 |
| Cc1cc(-c2ccc(Nc3cc(NC(=O)C4CC4)nc4[nH]c(C(F)F)nc34)c(S(C)(=O)=O)c2)oc1C [I-420, N-(2-(difluoromethyl)-7-((4-(4,5-dimethylfuran-2-yl)-2-(methylsulfonyl)phenyl)amino)-3H-imidazo[4,5-b]pyridin-5-yl)cyclopropanecarboxamide] | 8.00 to 9.00 |
| Cc1nc2c(Nc3ccc(-c4cc(C)c(C)o4)cc3S(C)(=O)=O)cc(NC(=O)C3CC3)nc2[nH]1 [I-421, N-(7-((4-(4,5-dimethylfuran-2-yl)-2-(methylsulfonyl)phenyl)amino)-2-methyl-3H-imidazo[4,5-b]pyridin-5-yl)cyclopropanecarboxamide] | 9.30 to 10.00 |
| Cc1nc2c(Nc3ccc([C@H]4CCCO4)cc3S(C)(=O)=O)cc(NC(=O)[C@@H]3CC3(F)F)nc2[nH]1 [I-422, (S)-2,2-difluoro-N-(2-methyl-7-((2-(methylsulfonyl)-4-((R)-tetrahydrofuran-2-yl)phenyl)amino)-3H-imidazo[4,5-b]pyridin-5-yl)cyclopropane-1-carboxamide] | 9.00 to 9.30 |
| Cc1nc2c(Nc3ccc([C@H]4CCCO4)cc3S(C)(=O)=O)cc(NC(=O)[C@H]3CC3(F)F)nc2[nH]1 [I-423, (R)-2,2-difluoro-N-(2-methyl-7-((2-(methylsulfonyl)-4-((R)-tetrahydrofuran-2-yl)phenyl)amino)-3H-imidazo[4,5-b]pyridin-5-yl)cyclopropane-1-carboxamide] | 8.00 to 9.00 |
| CS(=O)(=O)c1cc([C@@H]2CCCO2)ccc1Nc1cc(NC(=O)C2CC2)nc2[nH]c(C(F)F)nc12 [I-424, (S)—N-(2-(difluoromethyl)-7-((2-(methylsulfonyl)-4-(tetrahydrofuran-2-yl)phenyl)amino)-3H-imidazo[4,5-b]pyridin-5-yl)cyclopropanecarboxamide] | > 10.00 |
| CS(=O)(=O)c1cc([C@H]2CCCO2)ccc1Nc1cc(NC(=O)C2CC2)nc2[nH]c(C(F)F)nc12 [I-425, (R)—N-(2-(difluoromethyl)-7-((2-(methylsulfonyl)-4-(tetrahydrofuran-2-yl)phenyl)amino)-3H-imidazo[4,5-b]pyridin-5-yl)cyclopropanecarboxamide] | 9.30 to 10.00 |
| Cc1nc2c(Nc3ccc([C@@H]4CCCO4)cc3S(C)(=O)=O)cc(NC(=O)[C@@H]3CC3(F)F)nc2[nH]1 [I-426, (S)-2,2-difluoro-N-(2-methyl-7-((2-(methylsulfonyl)-4-((S)-tetrahydrofuran-2-yl)phenyl)amino)-3H-imidazo[4,5-b]pyridin-5-yl)cyclopropane-1-carboxamide] | 9.30 to 10.00 |
| Cc1nc2c(Nc3ccc([C@@H]4CCCO4)cc3S(C)(=O)=O)cc(NC(=O)[C@H]3CC3(F)F)nc2[nH]1 [I-427, (R)-2,2-difluoro-N-(2-methyl-7-((2-(methylsulfonyl)-4-((S)-tetrahydrofuran-2-yl)phenyl)amino)-3H-imidazo[4,5-b]pyridin-5-yl)cyclopropane-1-carboxamide] | 9.30 to 10.00 |
| CC1(C)COC(c2ccc(Nc3cc(NC(=O)[C@@H]4C[C@@H]4F)nc4[nH]c(C(F)F)nc34)c(S(C)(=O)=O)c2)=N1 [I-428, (1S,2S)—N-(2-(difluoromethyl)-7-((4-(4,4-dimethyl-4,5-dihydrooxazol-2-yl)-2-(methylsulfonyl)phenyl)amino)-3H-imidazo[4,5-b]pyridin-5-yl)-2-fluorocyclopropane-1-carboxamide] | 8.00 to 9.00 |
| Cn1ccc(-c2ccc(Nc3cc(NC(=O)C4CC4)nc4[nH]c(C(F)F)nc34)c(P(C)(C)=O)c2)n1 [I-429, N-(2-(difluoromethyl)-7-((2-(dimethylphosphoryl)-4-(1-methyl-1H-pyrazol-3-yl)phenyl)amino)-3H-imidazo[4,5-b]pyridin-5-yl)cyclopropanecarboxamide] | > 10.00 |
| Cc1nc2c(Nc3ccc(-c4ccn(C)n4)cc3P(C)(C)=O)cc(NC(=O)C3CC3)nc2[nH]1 [I-430, N-(7-((2-(dimethylphosphoryl)-4-(1-methyl-1H-pyrazol-3-yl)phenyl)amino)-2-methyl-3H-imidazo[4,5-b]pyridin-5-yl)cyclopropanecarboxamide] | 9.30 to 10.00 |
| Cc1nc2c(Nc3ccc(C4CCOCC4)cc3P(C)(C)=O)cc(NC(=O)C3CC3)nc2[nH]1 [I-431, N-(7-((2-(dimethylphosphoryl)-4-(tetrahydro-2H-pyran-4-yl)phenyl)amino)-2-methyl-3H-imidazo[4,5-b]pyridin-5-yl)cyclopropanecarboxamide] | 9.00 to 9.30 |
| CS(=O)(=O)c1cc(C2CCC2)ccc1Nc1cc(NC(=O)[C@H]2C[C@H]2F)nc2[nH]c(C(F)F)nc12 [I-432, (1R,2R)—N-(7-((4-cyclobutyl-2-(methylsulfonyl)phenyl)amino)-2-(difluoromethyl)-3H-imidazo[4,5-b]pyridin-5-yl)-2-fluorocyclopropane-1-carboxamide] | 8.00 to 9.00 |
| CS(=O)(=O)c1cc(C2CCC2)ccc1Nc1cc(NC(=O)[C@@H]2C[C@@H]2F)nc2[nH]c(C(F)F)nc12 [I-433, (1S, 2S)—N-(7-((4-cyclobutyl-2-(methylsulfonyl)phenyl)amino)-2-(difluoromethyl)-3H-imidazo[4,5-b]pyridin-5-yl)-2-fluorocyclopropane-1-carboxamide] | 9.30 to 10.00 |
| Cc1cc(Nc2cc(Nc3ccc(C4CC4)cc3S(C)(=O)=O)c3nc(C)[nH]c3n2)nc(C)n1 [I-434, N7-(4-cyclopropyl-2-(methylsulfonyl)phenyl)-N5-(2,6-dimethylpyrimidin-4-yl)-2-methyl-3H-imidazo[4,5-b]pyridine-5,7-diamine] | 9.30 to 10.00 |
| Cc1nc2c(Nc3ccc(C4CC4)cc3S(C)(=O)=O)cc(Nc3cnc(C)c(C)n3)nc2[nH]1 [I-435, N7-(4-cyclopropyl-2-(methylsulfonyl)phenyl)-N5-(5,6-dimethylpyrazin-2-yl)-2-methyl-3H-imidazo[4,5-b]pyridine-5,7-diamine] | 9.30 to 10.00 |
| CS(=O)(=O)c1cc(C2CC2)ccc1Nc1cc(Nc2cc3n(n2)CCOC3)nc2[nH]c(C(F)F)nc12 [I-436, N7-(4-cyclopropyl-2-(methylsulfonyl)phenyl)-2-(difluoromethyl)-N5-(6,7-dihydro-4H-pyrazolo[5,1-c][1,4]oxazin-2-yl)-3H-imidazo[4,5-b]pyridine-5,7-diamine] | 9.30 to 10.00 |
| Cc1nc2c(Nc3ccc(C4CC4)cc3S(C)(=O)=O)cc(Nc3cc4n(n3)CCOC4)nc2[nH]1 [I-437, N7-(4-cyclopropyl-2-(methylsulfonyl)phenyl)-N5-(6,7-dihydro-4H-pyrazolo[5,1-c][1,4]oxazin-2-yl)-2-methyl-3H-imidazo[4,5-b]pyridine-5,7-diamine] | > 10.00 |
